# Measurements published in patent US20160207969A1, “CLOSTRIDIUM DIFFICILE TARGETING MOIETIES AND CONSTRUCTS COMPRISING SAID MOIETIES” (C3 Jian, Inc., priority 2014, published 2016).
# Ends that are not written are not given here.
# What was measured:
# C. difficile = assay: MIC of antimicrobial peptides (Table 3); type: cell-based; conditions: unit not given
# [1] = system: C. difficile isolate CD1803 (ATCC BAA-1803); conditions: ATCC BAA-1803, 24 h
# [2] = system: C. difficile isolate CD43255 (ATCC 43255); conditions: ATCC 43255, 24 h
# B. fragilis [3] = conditions: 24 h
# [4] = system: C. difficile isolate CD1875 (ATCC BAA-1875); conditions: ATCC BAA-1875, 24 h
# [5] = system: C. difficile isolate CD43601 (ATCC 43601, non-toxigenic); conditions: ATCC 43601, 24 h
# L. casei = conditions: 24 h
# B. fragilis [6] = assay: Peptide killing kinetics (CFU plating, co-culture); type: cell-based; conditions: for activity on un-targeted organism B. fragilis compared to the levels seen on C. difficile isolate 1803: killing kinetics; for surviving B. fragilis: through 2 hours of STAMP exposure
# [7] = system: C. difficile isolate CD1382 (ATCC 630, strain 1382); conditions: ATCC 630, 24 h
# [8] = system: C. difficile isolate 1803; conditions: Clostridium difficile, 15 min
# Trubrum = assay: MIC of antimicrobial peptides (Table 3); type: cell-based
Substance,Organism MIC (C. difficile),MIC values [1] [µg/mL],MIC values [2] [µg/mL],MIC values (B. fragilis [3]) [µg/mL],MIC values [4] [µg/mL],MIC values [5] [µg/mL],MIC values (L. casei) [µg/mL],activity on un-targeted organism B. fragilis compared to the levels seen on C. difficile isolate 1803 (B. fragilis [6]),surviving B. fragilis (B. fragilis [6]),MIC values [7] [µg/mL],viable C. difficile recovered [8] [%],Organism MIC (Trubrum)
FELVDWLETNLGKILKSKSA (Antimicrobial peptide) [PF-522],"C. difficile, 25",–,–,–,–,–,–,–,–,–,–,–
GNFYRLFKDILKGGGKNLRIIRKGIHIIKKY-NH2 (C-terminus assumed) [CD8040_G2_3G],–,15.6,31.3,62.5,62.5,31.3,>250,less active,did not significantly decrease,15.6,< 90,–
GSVIKKRRKRMAKKKHRKLLKKTRIQRRRAGK [PF-527],–,–,–,–,–,–,–,–,–,–,–,"Trubrum, 25 μM"
LATKLKYEKEHKKMGGGGFLKFLKKFFKKLKYY-NH2 [CD0126 + AF5_4G],–,31.3,15.6,>250,15.6,7.8,>250,less active,did not significantly decrease,15.6,< 90,–
LATKLKYEKEHKKMGKIFGAIWPLALGALKNLIK-NH2 [CD0126 + Lys_A1_1G],–,7.8,15.6,>250,15.6,15.6,>250,–,–,7.8,< 90,–
LATLKKYLKEHKKMGKIFGAIWPLALGALKNLIK-NH2 [CD0126 + Lys_A1_M3],–,7.8,7.8,>250,7.8,7.8,>250,–,–,3.9,–,–
LSLATFAKIFMTRSNWSLKRFNRL (Antimicrobial peptide) [PF-278],–,–,–,–,–,–,–,–,–,–,–,"Trubrum, 50 μM"
MIRIRSPTKKKLNRNSISDWKSNTSGRFFY (Antimicrobial peptide) [PF-283],–,–,–,–,–,–,–,–,–,–,–,"Trubrum, 50 μM"
MKRRRCNWCGKLFYLEEKSKEAYCCKECRKKAKKVKK (Antimicrobial peptide) [PF-307],–,–,–,–,–,–,–,–,–,–,–,"Trubrum, 50 μM"
MRFGSLALVAYDSAIKHSWPRPSSVRRLRM (Antimicrobial peptide) [PF-672],–,–,–,–,–,–,–,–,–,–,–,"Trubrum, 0.78 μM"
NILRVLKQVWKGGGKNLRIIRKGIHIIKKY-NH2 (C-terminus assumed) [CD9232_G2_3G],–,7.8,7.8,15.6,31.3,7.8,125,less active,did not significantly decrease,3.9,< 90,–
VLPFPAIPLSRRRACVAAPRPRSRQRAS (Antimicrobial peptide) [PF-168],–,–,–,–,–,–,–,–,–,–,–,"Trubrum, 50 μM"
VPAKLLRVIDEIPGGFLKFLKKFFKKLKY-NH2 [CD0714 + AF5_2G],–,62.5,31.3,>250,62.5,–,>250,–,–,31.3,–,–
VPAKLLRVIDEIPGGKIFGAIWPLALGALKNLIK-NH2 [CD0714 + Lys_A1_2G],–,125,62.5,>250,31.3,15.6,>250,–,–,31.3,–,–
VPAKLLRVIDEIPKLFKFLRKHLL-NH2 [CD0714 + BD2-21_NG],–,15.6,7.8,>250,15.6,3.9,125,–,–,7.8,–,–
VPAKLLRVIKEIPGGFLKFLKKFFKKLK-NH2 [CD0714 + AF5_2G_M7],–,3.9,3.9,>250,15.6,7.8,>250,–,–,7.8,–,–
VPAKLLRVIKKIPGGFLKFLKKFFKKLK-NH2 [CD0714 + AF5_2G_M4],–,7.8,7.8,62.5,15.6,3.9,125,–,–,3.9,–,–
WSRVPGHSDTGWKVWHRW (Antimicrobial peptide) [PF-547],–,–,–,–,–,–,–,–,–,–,–,"Trubrum, 25 μM"
